Columns and labels:
[1] = system: freshly isolated primary mouse islets (β-cells); test: Primary mouse islet β-cell proliferation by Ki67 immunofluorescent staining (SerpinB1, ovalbumin, Sivelestat); type: cell-based
Excerpt: To test whether SerpinB1 is a β-cell growth factor, we cultured freshly isolated primary mouse islets in presence of various doses of recombinant human SerpinB1 or ovalbumin (SerpinB14) and evaluated β-cell proliferation by Ki67 immunofluorescent staining (known to those of ordinary skill in the art). […] A major substrate of SerpinB1 is neutrophil elastase. To investigate whether the proliferative action of SerpinB1 is mediated by antagonizing neutrophil elastase activity, we assessed the ability of the neutrophil elastase inhibitor, Sivelestat (Sivelestat is the International Nonproprietary Name (INN) as given by the World Health Organization (WHO); the chemical name is: N-{2-[({4-[(2,2-dimethylpropanoyl)oxy]phenyl}sulfonyl)amino]benzoyl}glycine), to stimulate islet β-cell proliferation in vitro.
In all experiments, cell counting was manually performed in a blinded fashion by a single observer. BrdU+ or Ki67+β cells were assessed by immunofluorescence microscopy. Insulin+ cells showing nuclear DAPI staining were considered as β cells. Insulin+ cells showing nuclear colocalized staining for DAPI+ and Ki67+ (or BrdU+) were counted as proliferating β cells. The double-positive cells (Ins+/BrdU+ or Ins+/Ki67+) were confirmed in randomly selected cells in all experiments by confocal microscopy.

[2] = system: human (EndoC-βH1) β-cells; test: Ki67 positive human β-cells (EndoC-βH1) with Sivelestat; type: cell-based; conditions: 100 μg/ml; compared to non-treated cells
[3] = 1 μg/ml, SerpinB1 compared to islets cultured at a similar concentration of ovalbumin

In the case of “ovalbumin: ovalbumin (SerpinB14), control protein for SerpinB1 in islet culture”, the “Ki67+ insulin+ cells (β-cell proliferation)” value (shortened to “Ki67+ insulin+ cells”) [1, 3] is reported as “normal low β-cell proliferation”.

For CC(C)(C)C(=O)Oc1ccc(S(=O)(=O)Nc2ccccc2C(=O)NCC(=O)O)cc1 [Sivelestat, N-{2-[({4-[(2,2-dimethylpropanoyl)oxy]phenyl}sulfonyl)amino]benzoyl}glycine], the “number of Ki67 positive β-cells” value [2] was “increased”, the “number of proliferating insulin+ cells” value ([1]; higher doses (e.g. 10 and 50 μg/ml)) was “substantial increase” and the “islet β-cell proliferation in vitro” value ([1]; low doses (1 and 5 μg/ml), FIG. 12) was “do not enhance β-cell proliferation”.

B1: SerpinB1: 42 kD serine peptidase inhibitor protein regulating neutrophil proteases; used as recombinant human SerpinB1 (protein, UniProt P30740 1-379, looked up)
Leukocyte elastase inhibitor: MEQLSSANTRFALDLFLALSENNPAGNIFISPFSISSAMAMVFLGTRGNTAAQLSKTFHFNTVEEVHSRFQSLNADINKRGASYILKLANRLYGEKTYNFLPEFLVSTQKTYGADLASVDFQHASEDARKTINQWVKGQTEGKIPELLASGMVDNMTKLVLVNAIYFKGNWKDKFMKEATTNAPFRLNKKDRKTVKMMYQKKKFAYGYIEDLKCRVLELPYQGEELSMVILLPDDIEDESTGLKKIEEQLTLEKLHEWTKPENLDFIEVNVSLPRFKLEESYTLNSDLARLGVQDLFNSSKADLSGMSGARDIFISKIVHKSFVEVNEEGTEAAAATAGIATFCMLMPEENFTADHPFLFFIRHNSSGSILFLGRFSSP
In the case of B1, the “Ki67+ insulin+ cells” value [1, 3] is reported as “reached statistical significance” and the “Ki67+ insulin+ cells” value ([1]; isolated mouse islets cultured with various doses of recombinant SerpinB1) is reported as “dose-dependent increase”.
